Test results reported in patent publication US11214803B2, “Modulators of YAP1 expression” (Ionis Pharmaceuticals, Inc., priority 2019, dated 2022).
Strand notation (5' to 3'): a small letter for the sugar, then the base; units joined by * are phosphorothioate-linked, units joined directly phosphodiester-linked; [ ] holds rarer units or linkages, { } end groups; capitals alone tell only the bases. k = constrained ethyl (cEt); [5mC] = 5-methylcytosine; d = 2'-deoxy (DNA)

test system: Yap1 mRNA; assay: Antisense inhibition of human Yap1 in A-431 cells by cEt gapmers, single dose (Example 2, RTS4814); format: cell-based; conditions: A-431 cells, 5,000 cells per well, free uptake, 2,000 nM modified oligonucleotide, approx. 48 hours, RTS4814, normalized to RIBOGREEN; Table 4; asterisk (*) = targets amplicon region of primer probe set
Outline: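 Yap1 mRNA levels, by real-time RT-PCR (RTS4814) and corrected for total RNA via RIBOGREEN, are given as percent of untreated cells. Gapmers (16-mer, cEt wings, phosphorothioate, 5-methylC) were delivered without transfection at 2,000 nM to A-431 cells for about 48 hours.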

Substance	YAP1 (% UTC)
716547 (kG*kG*kT*dA*dT*dG*dA*dA*dT*dT*d[5mC]*dT*dG*kA*kA*kT; antisense) [Compound 716547]	44
716469 (kG*kT*kT*dT*dG*d[5mC]*dT*d[5mC]*d[5mC]*dT*dT*dT*d[5mC]*k[5mC]*kA*kA; antisense) [Compound 716469]	25

same assay, conditions: Table 5; A-431 cells, 5,000 cells per well, free uptake, 2,000 nM modified oligonucleotide, approx. 48 hours; RTS4814; normalized to RIBOGREEN; Yap1 mRNA relative to untreated control cells

Substance	YAP1 (% UTC)
716404 (k[5mC]*kG*kT*d[5mC]*dA*dT*dT*dG*dT*dT*d[5mC]*dT*d[5mC]*kA*kA*kT; antisense) [Compound 716404]	63
716509 (antisense kT*kA*kT*dA*d[5mC]*d[5mC]*d[5mC]*dA*dA*dT*dT*dT*dT*kG*k[5mC]*kA) [Compound 716509]	70
716425 (kG*k[5mC]*kA*dA*dT*dA*d[5mC]*dA*dT*dT*dA*dA*d[5mC]*kA*kG*k[5mC]; antisense) [Compound 716425]	71

same assay, conditions: Table 6; A-431 cells, 5,000 cells per well, free uptake, 2,000 nM modified oligonucleotide, approx. 48 hours; RTS4814; normalized to RIBOGREEN; Yap1 mRNA relative to untreated control cells

Substance	YAP1 (% UTC)
716453 (kG*kG*kT*dA*dA*dA*dA*dA*dA*dA*dA*d[5mC]*d[5mC]*kA*kG*kG; antisense) [Compound 716453]	87
716579 (kA*kT*kA*dG*dA*dG*dA*dT*dT*dT*dT*d[5mC]*d[5mC]*k[5mC]*kT*k[5mC]; antisense) [Compound 716579]	84

same assay, conditions: Table 18; A-431 cells, 5,000 cells per well, free uptake, 2,000 nM modified oligonucleotide, approx. 48 hours; RTS4814; normalized to RIBOGREEN; Yap1 mRNA as percent of untreated control

Substance	YAP1 (% UTC)
1074596 (antisense kT*kT*k[5mC]*dT*dA*dT*d[5mC]*d[5mC]*dA*dG*dG*dG*dT*k[5mC]*kA*kA) [Compound 1074596]	12
1075204 (antisense kG*kT*kT*dA*dA*dA*d[5mC]*dA*d[5mC]*dA*dT*d[5mC]*dT*k[5mC]*kA*kG) [Compound 1075204]	43

same assay, conditions: Table 19; A-431 cells, 5,000 cells per well, free uptake, 2,000 nM modified oligonucleotide, approx. 48 hours; RTS4814; normalized to RIBOGREEN; Yap1 mRNA as percent of untreated control

Substance	YAP1 (% UTC)
1074821 (kG*kA*kA*dA*dA*dG*dT*dG*dT*dT*dA*dA*dG*k[5mC]*kA*k[5mC]; antisense) [Compound 1074821]	18

same assay, conditions: Table 20; Yap1 mRNA, percent of untreated control; 3-10-3 cEt gapmers targeting SEQ ID NO.: 1 and 2

Substance	YAP1 (% UTC)
1074790 (k[5mC]*kA*kT*d[5mC]*dA*dA*d[5mC]*d[5mC]*dA*dT*dA*dA*dG*kT*kA*kG; antisense) [Compound 1074790]	28
1075174 (antisense k[5mC]*k[5mC]*kT*dG*dA*dA*dA*dA*dG*dA*d[5mC]*dA*dG*kT*k[5mC]*k[5mC]) [Compound 1075174]	74
1075910 (kG*kA*kA*dA*dT*dA*dA*dG*dG*dA*dG*dT*dA*kG*kG*kT; antisense) [Compound 1075910]	93
1075206 (antisense kT*kA*kT*dT*dA*dA*dA*dT*dG*dA*dG*d[5mC]*dA*k[5mC]*k[5mC]*kA) [Compound 1075206]	36
1074214 (antisense kT*k[5mC]*k[5mC]*dG*dG*d[5mC]*dG*dG*d[5mC]*dT*dT*dG*dA*kA*kG*kA) [Compound 1074214]	89

same assay, conditions: Table 21; Yap1 mRNA, percent of untreated control; 3-10-3 cEt gapmers targeting SEQ ID NO.: 1 and 2

Substance	YAP1 (% UTC)
1075687 (kT*kA*kA*dA*d[5mC]*dG*dA*dG*dT*dA*dA*dT*dG*kA*k[5mC]*kT; antisense) [Compound 1075687]	23
1074279 (antisense kG*kT*k[5mC]*dA*dA*dG*d[5mC]*d[5mC]*dT*dT*dG*dG*dG*kT*k[5mC]*kT) [Compound 1074279]	13
1075239 (antisense kT*k[5mC]*kT*dT*dA*dA*dA*d[5mC]*dA*dG*dG*dT*dG*k[5mC]*k[5mC]*kA) [Compound 1075239]	27
1075175 (antisense kA*k[5mC]*kT*dG*dA*dA*dA*dG*dA*dT*dT*d[5mC]*d[5mC]*kA*kT*kG) [Compound 1075175]	99
1074951 (antisense k[5mC]*kA*kT*d[5mC]*dA*dG*dG*dT*dT*dA*dA*dG*dT*kG*kA*kT) [Compound 1074951]	85

same assay, conditions: Table 22; Yap1 mRNA as percent of untreated control; 3-10-3 cEt gapmers; single dose

Substance	YAP1 (% UTC)
1075560 (kG*k[5mC]*kT*dA*dA*dA*dT*dA*dA*dA*dG*dG*dT*kT*kA*k[5mC]; antisense) [Compound 1075560]	86
1076168 (k[5mC]*kA*kA*dA*dT*dT*dT*dA*d[5mC]*dA*d[5mC]*d[5mC]*dA*k[5mC]*k[5mC]*kG; antisense) [Compound 1076168]	23

same assay, conditions: Table 23; Yap1 mRNA as percent of untreated control; 3-10-3 cEt gapmers; single dose

Substance	YAP1 (% UTC)
1074857 (antisense kA*k[5mC]*kA*dT*dT*dG*dG*dT*dA*d[5mC]*dT*dA*dT*kA*kT*kA) [Compound 1074857]	25
1076393 (k[5mC]*kT*kT*dT*dA*d[5mC]*dT*dT*dA*d[5mC]*dT*dG*dG*kT*kG*kG; antisense) [Compound 1076393]	4

same assay, conditions: Table 24; Yap1 mRNA as percent of untreated control; 3-10-3 cEt gapmers targeting SEQ ID NO.: 1, and 2

Substance	YAP1 (% UTC)
1075434 (antisense kG*kT*kA*dA*dA*dA*dG*dA*dG*dG*dT*dG*d[5mC]*kA*kT*k[5mC]) [Compound 1075434]	96
1075178 (antisense k[5mC]*kT*kG*dG*dA*dA*dG*dA*dA*dA*dT*dT*dA*k[5mC]*k[5mC]*k[5mC]) [Compound 1075178]	47
1074122 (antisense k[5mC]*kT*kG*d[5mC]*dG*dA*dG*dG*d[5mC]*dA*d[5mC]*dT*d[5mC]*kG*kG*kA) [Compound 1074122]	73

same assay, conditions: Table 25; Yap1 mRNA as percent of untreated control; 3-10-3 cEt gapmers targeting SEQ ID NO.: 1, and 2

Substance	YAP1 (% UTC)
1074987 (antisense kG*k[5mC]*k[5mC]*dG*d[5mC]*dG*dG*d[5mC]*dT*d[5mC]*d[5mC]*d[5mC]*dG*kA*kG*k[5mC]) [Compound 1074987]	94
1076491 (antisense kA*kG*k[5mC]*d[5mC]*dA*dA*dA*dA*dT*dA*dG*dG*dT*kG*kA*kG) [Compound 1076491]	12
1074411 (antisense kT*kG*kT*dG*dA*dA*dA*dG*dA*dG*dG*dT*d[5mC]*kA*kG*k[5mC]) [Compound 1074411]	3
1074571 (antisense kT*kA*kT*dG*dA*dA*d[5mC]*d[5mC]*dT*dA*d[5mC]*dT*d[5mC]*kA*k[5mC]*kT) [Compound 1074571]	37

same assay, conditions: Table 32; Yap1 mRNA, percent of untreated control; 3-10-3 cEt gapmers targeting SEQ ID NO.: 1, and 2

Substance	YAP1 (% UTC)
1075442 (antisense kT*kA*kT*dT*dA*dG*dT*dT*d[5mC]*dT*dA*d[5mC]*dG*kA*kT*kT) [compound 1075442]	71
1075410 (antisense kG*kA*kT*dT*dA*dA*d[5mC]*dA*dG*d[5mC]*d[5mC]*d[5mC]*dT*kT*kT*kA) [compound 1075410]	36
1074194 (antisense k[5mC]*k[5mC]*kG*dG*dG*dT*d[5mC]*d[5mC]*dG*dG*dA*d[5mC]*dG*kG*k[5mC]*kG) [compound 1074194]	57
1075890 (antisense kG*kA*kT*dT*dA*dA*dA*dA*dG*dT*dA*dG*dG*k[5mC]*k[5mC]*k[5mC]) [compound 1075890]	92

same assay, conditions: Table 33; Yap1 mRNA, percent of untreated control; 3-10-3 cEt gapmers targeting SEQ ID NO.: 1, and 2

Substance	YAP1 (% UTC)
1075571 (antisense k[5mC]*kA*kA*dA*dT*dA*dG*dA*dT*dA*d[5mC]*dT*dA*kA*kG*k[5mC]) [compound 1075571]	54
1074163 (k[5mC]*kA*kG*dG*d[5mC]*dG*dA*dG*d[5mC]*dG*dA*dG*dG*kG*k[5mC]*kT; antisense) [compound 1074163]	118
1076435 (k[5mC]*kG*kT*dA*dA*dA*d[5mC]*dA*dT*d[5mC]*dA*dT*d[5mC]*kT*k[5mC]*kT; antisense) [compound 1076435]	12
1075347 (antisense k[5mC]*kA*kT*dA*dG*dG*dT*dA*dG*dG*d[5mC]*dA*dA*k[5mC]*kA*kA) [compound 1075347]	20

same assay, conditions: Yap1 mRNA as percent of untreated control; A-431 cells; 3-10-3 cEt gapmers targeting SEQ ID NO.: 1, and 2; Table 30

Substance	YAP1 (% UTC)
1074256 (antisense k[5mC]*kA*k[5mC]*dT*dG*dG*dT*dG*dG*dA*d[5mC]*dT*dG*kG*kT*kG) [compound 1074256]	64
1076336 (antisense k[5mC]*kA*kT*dT*dA*d[5mC]*d[5mC]*dA*d[5mC]*d[5mC]*dT*dA*dT*kA*kA*kG) [compound 1076336]	31
1074544 (k[5mC]*kT*k[5mC]*d[5mC]*d[5mC]*d[5mC]*dT*dA*dG*dG*d[5mC]*dA*d[5mC]*kT*kA*kT; antisense) [compound 1074544]	34

same assay, conditions: Yap1 mRNA as percent of untreated control; A-431 cells; 3-10-3 cEt gapmers targeting SEQ ID NO.: 1, and 2; Table 31

Substance	YAP1 (% UTC)
1076113 (kT*kG*kA*d[5mC]*dA*dA*dT*dA*dG*d[5mC]*d[5mC]*dA*dA*kT*kG*k[5mC]; antisense) [compound 1076113]	16
1076273 (kA*kA*kA*d[5mC]*dA*dA*dA*dA*dT*dG*dG*d[5mC]*dG*kA*kA*kT; antisense) [compound 1076273]	84
1075857 (antisense k[5mC]*kT*kT*dA*dA*dA*d[5mC]*dA*dA*dT*d[5mC]*d[5mC]*d[5mC]*kT*kA*kA) [compound 1075857]	69
